# Experimental data taken from US7981444B2, “Dendritic polymers with enhanced amplification and interior functionality” (Dendritic Nanotechnologies, Inc., priority 2004, dated 2011).
# Key:
# [1] = Thermal Gravimetric Analysis (TGA); type: physicochemical; conditions: in nitrogen, scan 20 to 520° C., ramp rate 10 degrees per minute
# Experimental: Thermal Gravimetric Analysis (TGA)
# Thermal gravimetric data were obtained on a Universal V3.9A TA Instrument. Temperature scan range was from 20 to 520° C. with a ramp rate of 10 degrees per minute. Sample sizes were typically about 10 mg of solid product.
# In comparison, curves 1 and 2 show the thermal degradation profiles of products of Examples 7D and 13, respectively.
# TGA Under Same Conditions as Comparative Example I for Various Dendrimers of Formula (I) and PAMAM
# [2] = cited from earlier work
Onset Temp. (° C.) [1],Temp. (° C.) at 50% wt loss [1],Temp. (° C.) at Residue [1],Compound,pKa value [2]
320 °C,407 °C,500+ ° C.,COC(=O)C1CC(=O)N(CCN(CCN2CC(C(=O)OC)CC2=O)CC(O)Cn2c(=O)n(CC(O)CN(CCN3CC(C(=O)OC)CC3=O)CCN3CC(C(=O)OC)CC3=O)c(=O)n(CC(O)CN(CCN3CC(C(=O)OC)CC3=O)CCN3CC(C(=O)OC)CC3=O)c2=O)C1 (stereo not shown) [Example 33],
,,,tris(hydroxymethyl)amino methane,8.10
